By IC50 is commonly meant the concentration needed to halve the response being measured. As usually defined, the EC50 is the concentration that produces a half-maximal response. One may read the AC50 as the concentration giving half of the maximal activity seen. As a reminder, the CC50 is the concentration that lowers cell viability or growth by half.

In test [1] the test system is HEK293. Description: cells. In kind it is functional, cell-based. The note with it: Homo sapiens.
For test [2], the system named is HEK293. Kind of test: cells. To be noted: Homo sapiens.
Test [3] in a line: cells. In kind it is functional, cell-based. To be noted: HEK-CNG.
Test [4] deals with HEK293. Kind of test: cells. It counts as functional, cell-based. To be noted: Homo sapiens. This is another data set of the same source.
The target in a further test is Tumor necrosis factor (Homo sapiens, UniProt P01375). Description: TNFa-triggered NF-kB activation inhibitors, SAR follow-up, cell-based, revised (AID 2337). In kind it is functional.
A short description of test [5]: inhibitors of clade B AD8 Env fusion, dose response, cell-based, cherry-pick (AID 652062).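 Further: luciferase signal from cell-cell fusion driven by HIV-1 clade B AD8 Env; potency is for inhibitors of fusion seen as a drop in luminescence.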 In kind it is functional.
A short description of test [6]: cytotoxicity in HEK-293T NF-kB-Luc cells, dose response, cytotoxicity control for B/T-cell NF-kB inhibitor project, cell-based, uHTS hits (AID 489019).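 Further: IC50 reflects cytotoxicity as loss of cell viability.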 It counts as functional.
The nature of test [7]: off-target signal loss in HeLa-CEM21 co-culture – HeLa F-luc CTL cells, cherry-picked, counter-screen for HIV-1 Env fusion inhibitor project, dose response (AID 652040).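 Further: potency for signal decrease marking cytotoxic or nonspecific inhibition.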 In kind it is functional, cell-based. (A counterscreen serves to expose hits that act by an unwanted route or on another target.)
The test system of the next test is Jurkat. Kind of test: antigen receptor-induced NF-kB inhibitors, dose response, Jurkat, luciferase reporter, luminescence, B- and T-cell (AID 489004).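 Further: NF-kB luciferase reporter Jurkat cells stimulated with PMA plus ionomycin.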 In kind it is functional, cell-based. The note with it: Homo sapiens. (Reporter assays use an easily measured gene product as a stand-in for the process of interest.)
The subject of test [8] is HEK293. Description: NOD1 signaling inhibitors, primary screen, cell-based, luminescence, uHTS (AID 1578). In kind it is functional. To be noted: Homo sapiens.
For a further test, the target named is Galanin receptor type 3 (Homo sapiens, UniProt O60755). Kind of test: Fluorescence-based cell-based primary high throughput dose response assay to identify antagonists of the Galanin Receptor 3 (GalR3). In kind it is functional.
Test [9] has as its target Nucleotide-binding oligomerization domain-containing protein 1 (Homo sapiens, UniProt Q9Y239). Kind of test: NOD1 signaling inhibitors, SAR follow-up, revised (AID 2333). It counts as functional.
Test [10] concerns the target Eukaryotic translation initiation factor 4E (Mus musculus, UniProt P63073). Kind of test: eIF4E–eIF4G protein interaction inhibitors, dose response, biochemical, TR-FRET (AID 855).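 Further: potency for disrupting eIF4E binding to eIF4GI seen as loss of FRET.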 In kind it is functional.
The subject of test [11] is HEK293. Description: NOD2 signaling inhibitors in MDP-stimulated cells, cell-based, uHTS, luminescence (AID 2001). It counts as functional. The note with it: Homo sapiens.
The target in test [12] is Endoplasmic reticulum aminopeptidase 1 (Homo sapiens, UniProt Q9NZ08). Kind of test: ERAP1 aminopeptidase inhibitors, dose response, biochemical, cherry-pick, set 2, plate reader (AID 743314).
Test [13] is described as follows: cells.
A short description of test [14]: cells. The note with it: HEK293.
Test [15] in a line: cells. The note with it: A549.
The test system of another test is Vero. Kind of test: cells. It counts as functional. To be noted: Chlorocebus sabaeus.
In a further test the test system is Streptococcus. Kind of test: Group A Streptococcus viability loss, dose response, counter-screen for streptokinase expression inhibitor project, luminescence, BacTiterGlo (AID 1915).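 Further: potency for reduction of bacterial viability or growth.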 In kind it is functional, organism-based.
Test [16] in a line: inhibitors of intracellular T. cruzi replication, confirmation, NIH3T3 host cells, beta-gal luminescence (AID 2044).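 Further: intracellular parasites grown in NIH/3T3 mouse fibroblasts as host cells; luminescent beta-galactosidase reporter signal from transgenic T. cruzi replicating inside host cells; inhibitors lower the luminescence signal.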 It counts as functional, cell-based.
The nature of test [17]: C. albicans growth with fluconazole, confirmation, fluorescence, retest (AID 2467). In kind it is functional, cell-based.
Test [18] deals with Streptococcus sp. 'group A'. Description: growth inhibition of control SK(-) GAS strain, dose response, counter-screen for streptokinase expression inhibitor project, luminescence, kanamycin, BacTiterGlo, confirmation (AID 1900). In kind it is functional, organism-based.
Test [19] is described as follows: human group III sPLA2 inhibitors, dose response, biochemical, QFRET, IC50 (AID 743457).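 Further: green fluorescence rise as the enzyme cleaves BODIPY PC-A2 in liposomes; potency for inhibition of the enzyme.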
Test [20] can be described thus: NIH-3T3 fibroblast cytotoxicity, dose response, cytotoxicity control, cell-based, fluorescence, Alamar Blue, secondary assay (AID 2327).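 Further: NIH-3T3 mouse fibroblasts cultured with fluconazole at 8 µg/mL.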 In kind it is functional. (Resazurin is reduced to fluorescent resorufin, in cell work by metabolically active cells.)
A short description of test [21]: Shn3 3'UTR reporter inhibitors, dose response, cell-based, Clone20 osteoblasts, firefly luciferase, cherry-picked (AID 624132).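 Further: firefly luciferase luminescence from reporter carrying the Shn3 3'UTR in osteoblasts.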 It counts as functional.
For the next test, the system named is INS1. Kind of test: beta cell apoptosis inhibitors, cytokine rescue, dose response, luminescence, retest (AID 449756).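 Further: cell death triggered by IL-1 beta plus TNF-alpha plus IFN-gamma mixture; protective hits raise ATP signal compared with cytokine alone wells.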 To be noted: Rattus norvegicus. In kind it is functional, cell-based.
The test system of test [22] is HEK293. Description: inhibitors of LMP1-driven NF-kB reporter, dose response, cell-based, HEK293, luciferase, cherry-pick (AID 588343). It counts as functional. The note with it: Homo sapiens.
Test [23] in a line: control 3'UTR Renilla luciferase suppression, dose response, counter-screen for Shn3 inhibitor project, cell-based, Clone20-Shn3RL, cherry-picked (AID 624133). In kind it is functional.
Test [24] in a line: HEK293T cytotoxicity, dose response, cytotoxicity control for miR-122 modulator project, cell-based, activator set, cherry-pick (AID 720690).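 Further: HEK293T human cells scored for general mammalian cytotoxicity.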 It counts as functional.
Test [25] is described as follows: HepG2 cell cytotoxicity, dose response, cytotoxicity control for Shn3 inhibitor project, CellTiter-Glo, cherry-picked (AID 624134). In kind it is functional, cell-based.
The nature of test [26]: cytotoxicity toward NIH3T3 fibroblasts, dose response, counter-screen, cell-based, ATP luminescence, mouse fibroblasts (AID 2010).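 Further: cells exposed to compound for about 90 hours before reading.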 In kind it is functional.
The nature of test [27]: HEK293T cytotoxicity, dose response, cytotoxicity control for miR-122 modulator project, cell-based, inhibitor set, cherry-pick, set 2 (AID 720697). It counts as functional.
The nature of test [28]: reduction of Shn3 3'UTR firefly luciferase signal, dose response, Schnurri-3 inhibitor project, cell-based, Clone20 osteoblasts, cherry-pick, set 2 (AID 720490).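 Further: actives lower the luminescence signal as inhibitors.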 In kind it is functional.
A short description of test [29]: inhibitors of control Renilla luciferase reporter, dose response, counter-screen for Shn3 3'UTR targeting project, Clone20-Shn3RL cells, dual-Glo, cherry-pick, set 2 (AID 720724). It counts as functional, cell-based. To be noted: Dual-Go Shn3RL.
Test [30] in a line: ZM109 Env clade C HIV-1 fusion inhibitors, dose response, HeLa effector, CEM target cells, luciferase, cherry-pick (AID 652058). In kind it is functional, cell-based.
Test [31] is described as follows: HepG2 cell cytotoxicity, dose response, cytotoxicity control, plate reader, cherry-pick, antagonist series (AID 743416). In kind it is functional, cell-based.
A short description of test [32]: A549 cell cytotoxicity, dose response, cytotoxicity control, plate reader, cherry-pick, antagonist series (AID 743412). It counts as functional, cell-based.
Test [33] in a line: inhibitors of HIV Env-driven cell fusion, dose response, cherry-pick (AID 652057). In kind it is functional, cell-based.
Test [34] can be described thus: LGR2 antagonists, dose response, cell-based, HEK293, CRE-luciferase reporter, cherry pick, set 2 (AID 743343).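 Further: transfected cells were stimulated with diluted bursicon conditioned medium after compound addition.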 It counts as functional.
Test [35] in a line: CEM21 lymphoblast cell cytotoxicity, dose response, cytotoxicity control for viral fusion inhibitor project, CellTiter-Glo luminescence, cherry-picked (AID 652042).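 Further: potency for signal decrease meaning cytotoxicity.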 It counts as functional, cell-based.
The nature of test [36]: HEK293 cell cytotoxicity, dose response, cytotoxicity control, plate reader, cherry-picked samples (AID 743446). In kind it is functional, cell-based.
A short description of test [37]: MC4R antagonists, dose response, counter-screen for LGR2 antagonist project, cell-based, plate reader, cherry pick (AID 743444).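 Further: transfected HEK 293 cells stimulated with alpha-MSH peptide; potency of inhibitors of the alpha-MSH evoked signal.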 It counts as functional.

The source made the active and inactive calls. Where only a bound is given, the exact number is not on record here.

Chain of Galanin receptor type 3 (O60755 whole entry, the tested form may be a part): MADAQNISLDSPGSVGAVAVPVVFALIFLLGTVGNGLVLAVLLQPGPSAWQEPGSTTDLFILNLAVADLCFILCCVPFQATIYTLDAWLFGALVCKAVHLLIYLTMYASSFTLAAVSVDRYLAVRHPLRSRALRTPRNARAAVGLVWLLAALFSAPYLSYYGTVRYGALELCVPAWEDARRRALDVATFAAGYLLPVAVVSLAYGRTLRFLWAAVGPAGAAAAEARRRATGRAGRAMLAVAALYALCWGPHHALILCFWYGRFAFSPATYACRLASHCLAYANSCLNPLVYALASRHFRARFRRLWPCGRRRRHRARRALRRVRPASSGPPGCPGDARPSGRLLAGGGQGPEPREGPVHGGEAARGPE
Chain of Nucleotide-binding oligomerization domain-containing protein 1 (Q9Y239 whole entry, the tested form may be a part): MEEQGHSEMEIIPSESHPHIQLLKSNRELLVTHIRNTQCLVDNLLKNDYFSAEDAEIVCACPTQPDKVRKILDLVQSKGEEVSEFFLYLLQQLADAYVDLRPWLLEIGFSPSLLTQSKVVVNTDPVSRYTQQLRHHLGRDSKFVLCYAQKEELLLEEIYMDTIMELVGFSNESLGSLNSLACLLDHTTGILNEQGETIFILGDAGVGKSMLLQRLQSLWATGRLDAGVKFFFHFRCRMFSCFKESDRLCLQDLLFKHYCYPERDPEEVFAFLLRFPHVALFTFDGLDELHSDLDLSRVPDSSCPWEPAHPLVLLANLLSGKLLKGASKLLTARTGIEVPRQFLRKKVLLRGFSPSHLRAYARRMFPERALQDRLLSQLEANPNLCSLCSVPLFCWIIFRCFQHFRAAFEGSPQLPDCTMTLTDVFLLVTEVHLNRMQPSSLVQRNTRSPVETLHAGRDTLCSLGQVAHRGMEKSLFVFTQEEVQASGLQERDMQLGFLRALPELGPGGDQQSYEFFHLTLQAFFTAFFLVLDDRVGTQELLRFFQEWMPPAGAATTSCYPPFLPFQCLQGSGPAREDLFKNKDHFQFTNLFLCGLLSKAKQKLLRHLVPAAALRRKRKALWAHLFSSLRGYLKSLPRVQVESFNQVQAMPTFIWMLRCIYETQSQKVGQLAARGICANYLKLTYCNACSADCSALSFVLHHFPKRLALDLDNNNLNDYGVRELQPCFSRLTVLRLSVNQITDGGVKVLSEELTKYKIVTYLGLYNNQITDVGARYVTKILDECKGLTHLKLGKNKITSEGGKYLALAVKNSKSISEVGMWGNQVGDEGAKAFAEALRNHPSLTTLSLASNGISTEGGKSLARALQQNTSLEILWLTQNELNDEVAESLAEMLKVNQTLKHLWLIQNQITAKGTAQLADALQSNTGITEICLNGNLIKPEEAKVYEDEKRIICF
Chain of Tumor necrosis factor (P01375 whole entry, the tested form may be a part): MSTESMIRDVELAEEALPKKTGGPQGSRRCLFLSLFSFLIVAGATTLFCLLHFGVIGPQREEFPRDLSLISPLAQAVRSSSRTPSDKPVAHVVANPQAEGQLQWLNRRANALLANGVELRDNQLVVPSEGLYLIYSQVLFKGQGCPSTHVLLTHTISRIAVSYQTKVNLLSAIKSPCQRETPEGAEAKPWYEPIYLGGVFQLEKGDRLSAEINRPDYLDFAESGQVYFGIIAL
Chain of Endoplasmic reticulum aminopeptidase 1 (Q9NZ08 whole entry): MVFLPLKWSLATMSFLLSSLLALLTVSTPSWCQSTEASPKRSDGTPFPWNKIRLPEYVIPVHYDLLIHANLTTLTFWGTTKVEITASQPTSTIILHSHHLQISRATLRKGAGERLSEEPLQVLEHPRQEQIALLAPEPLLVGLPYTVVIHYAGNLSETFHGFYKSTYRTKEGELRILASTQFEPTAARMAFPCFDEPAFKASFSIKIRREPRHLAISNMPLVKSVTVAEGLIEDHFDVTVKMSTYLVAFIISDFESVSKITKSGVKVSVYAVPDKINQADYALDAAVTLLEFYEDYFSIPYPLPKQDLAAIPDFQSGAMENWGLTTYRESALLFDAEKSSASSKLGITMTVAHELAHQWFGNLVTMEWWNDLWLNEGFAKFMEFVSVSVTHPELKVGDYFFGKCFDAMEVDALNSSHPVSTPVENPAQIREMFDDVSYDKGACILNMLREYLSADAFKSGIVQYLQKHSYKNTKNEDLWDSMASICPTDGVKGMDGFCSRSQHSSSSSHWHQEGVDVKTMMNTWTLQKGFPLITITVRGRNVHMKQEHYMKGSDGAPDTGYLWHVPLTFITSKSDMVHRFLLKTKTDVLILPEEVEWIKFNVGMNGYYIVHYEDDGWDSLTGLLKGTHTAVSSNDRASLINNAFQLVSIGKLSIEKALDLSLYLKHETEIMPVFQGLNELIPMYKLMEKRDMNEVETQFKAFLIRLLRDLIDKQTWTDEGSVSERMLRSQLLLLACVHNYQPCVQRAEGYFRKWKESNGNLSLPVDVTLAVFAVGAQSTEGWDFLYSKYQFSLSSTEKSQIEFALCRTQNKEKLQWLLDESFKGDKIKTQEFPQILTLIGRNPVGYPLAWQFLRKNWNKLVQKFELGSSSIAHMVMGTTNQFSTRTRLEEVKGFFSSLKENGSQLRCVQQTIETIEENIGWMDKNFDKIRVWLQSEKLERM
Chain of Eukaryotic translation initiation factor 4E (P63073 whole entry): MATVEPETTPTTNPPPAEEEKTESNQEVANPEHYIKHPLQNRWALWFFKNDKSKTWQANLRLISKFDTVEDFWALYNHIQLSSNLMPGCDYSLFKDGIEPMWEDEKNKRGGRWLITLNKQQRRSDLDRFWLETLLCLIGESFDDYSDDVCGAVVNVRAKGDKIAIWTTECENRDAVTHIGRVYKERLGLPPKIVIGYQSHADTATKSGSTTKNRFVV

Regarding `CCCCCn1c(=O)[nH]c2cc(C(=O)N3CCN(Cc4ccc5c(c4)OCO5)CC3)ccc2c1=O`, the IC50 with HEK293 [1] is 0.97 µM (active); with HEK293 [2], > 20 µM (inactive); in the test with HEK293 [4], 8.7 µM (active); on Tumor necrosis factor, 1.18 µM (active); in test [6], > 80 µM (inactive); with Jurkat, > 80 µM (inactive). In addition, the IC50 on Galanin receptor type 3 is 0.148 µM (active); in [9], 0.771 µM (active); in [10] it was > 64 µM (inactive); with HEK293 [11], 1.27 µM (active). In addition, the EC50 was > 29.9 µM (inactive) in “cells [3]” and 0.36 µM (active) in the test with HEK293 [8]. Moreover, the AC50 was < 0.26 µM (active) in test [5] and > 70 µM (inactive) in test [7].

On to `Cc1c(C)c2ccc(O)c(CN3CCN(C)CC3)c2oc1=O`, for which the AC50 in test [12] is 10.8 µM (active).

With `COCCn1c(=N)c(S(=O)(=O)c2ccc(F)cc2)cc2c(=O)n3ccccc3nc21`, the AC50 in “cells [13]” is 1.5 µM (active); in “cells [14]”, > 52 µM (inactive).

Consider `CCN(CC)c1ccc2c(C)c(Cl)c(=O)oc2c1`, for which the AC50 in the test “cells [15]” was > 52 µM (inactive).

Regarding `Cc1cc(C(=O)Nc2nc(-c3ccccn3)cs2)ccc1[N+](=O)[O-]`, the CC50 in the test on Vero is > 25 µM (active). For the same compound, the EC50 in the test with Streptococcus is 7.36 µM (active); in test [16] it was 1.11 µM (active); in test [17] it was 1.25 µM (active); in [18], 0.471 µM (active); in test [20], > 150 µM (inactive). In addition, the IC50 in test [19] was > 122 µM (inactive).

On to `COc1ccc(C(NC(C)=O)c2cc(Cl)c3cccnc3c2O)cc1` (stereo not given), for which the AC50 in [21] is 1.61 µM (active); with INS1, 1.95 µM (active); in the test on HEK293 [22] it was 4.38 µM (active); in test [23] it was 1.66 µM (active); in [24], 12.1 µM (active); in [25] it was 3.17 µM (active). Besides, the AC50 in [27] was 2.06 µM (active). Further, the EC50 in [16] was 1.47 µM (active); in test [26], 4.23 µM (active).

Regarding `CC1CCCC(NC(=O)c2cccc(S(=O)(=O)N3CCN(c4ccccc4)CC3)c2)C1C` (stereo not given), the AC50 in test [21] is 3.14 µM (active); in test [28], 4.29 µM (active); in [23], > 70 µM (inactive); in [25], > 70 µM (inactive); in test [29], 25.2 µM (active).

For the compound `Cc1nc(N/N=C/c2ccccn2)sc1C`, the AC50 in [30] is 18.8 µM (active); in [5] it was 6.45 µM (active); in the test with INS1, 3.83 µM (active); in [7], 13.5 µM (active); in test [31], 2.7 µM (active); in [32], 5.22 µM (active). Further, the AC50 in [33] was 3.74 µM (active); in [34], 0.573 µM (active); in test [35] it was 6.02 µM (active); in [36], 7.53 µM (active); in test [37] it was 0.949 µM (active).

The values are drawn from ChEMBL document CHEMBL1201862, “PubChem BioAssay data set” (2004).
